Measured values from patent publication US8168592B2 (Amgen Inc., priority 2005, dated 2012).
pIC50: −log10 of the molar value. Where two headings read alike, the source gives them in different places. Bridge positions count the residues as written; N and C are the ends. Square brackets hold non-standard residues; d marks the D form. Peptide text beside a SMILES is read from it. 1Nal = N[C@@H](Cc1cccc2ccccc12)C(=O)O; 2Nal = N[C@@H](Cc1ccc2ccccc2c1)C(=O)O; hArg = N=C(N)NCCCC[C@H](N)C(=O)O; Cit = NC(=O)NCCC[C@H](N)C(=O)O; PEG = not defined here

Molecular target: T1, CGRP1 receptor (Homo sapiens, UniProt O60894+Q16602)
T1 construct: SK-N-MC cells express CRLR and RAMP1, which form CGRP1 receptor; endogenous in cells; host or cells: SK-N-MC human neuroblastoma cells
Assay: in vitro CGRP1 receptor mediated cAMP assay in SK-N-MC cells
Assay type: cell-based
Experimental: The in vitro cAMP assay employed a human neuroblastoma-derived cell line (SK-N-MC). SK-N-MC cells express CRLR and RAMP1, which form CGRP1 receptor. CGRP1 receptor is a G-protein coupled receptor linked to the stimulatory G-protein, Gs. […] Briefly, two days before the assay, the cells were plated in 96-well plates in growth medium. On the day of the assay cells were rinsed with PBS followed by the addition of 60 μl of plasma free medium for 15 minutes at room temperature. […] The medium was then removed and the cells were lysed with 100 μl lysis buffer for 30 minutes at 37° C. for 30 minutes. Using a Tropix ELISA kit (Applied Biosystems, Foster City, Calif.), a cAMP-AP conjugate was diluted (1:100) and added (30 μl) to each well of a 96-well ELISA plate. An aliquot of the lysis buffer from the cell plate was then added to the ELISA plate followed by an aliquot of the cAMP antibody. This mixture was incubated for 1 hour at room temperature with gentle shaking. The ELISA plate was then washed 6× with wash buffer followed by the additions of a substrate enhancer. This mixture was incubated for 30 minutes at room temperature and then read on a MicroBeta Jet or EnVision plate reader. The results were analyzed using Prism (GraphPad).

[1] = Table 2C, unconjugated peptide, read-out: Peptide IC50

T1 sequence (Q16602 23-461): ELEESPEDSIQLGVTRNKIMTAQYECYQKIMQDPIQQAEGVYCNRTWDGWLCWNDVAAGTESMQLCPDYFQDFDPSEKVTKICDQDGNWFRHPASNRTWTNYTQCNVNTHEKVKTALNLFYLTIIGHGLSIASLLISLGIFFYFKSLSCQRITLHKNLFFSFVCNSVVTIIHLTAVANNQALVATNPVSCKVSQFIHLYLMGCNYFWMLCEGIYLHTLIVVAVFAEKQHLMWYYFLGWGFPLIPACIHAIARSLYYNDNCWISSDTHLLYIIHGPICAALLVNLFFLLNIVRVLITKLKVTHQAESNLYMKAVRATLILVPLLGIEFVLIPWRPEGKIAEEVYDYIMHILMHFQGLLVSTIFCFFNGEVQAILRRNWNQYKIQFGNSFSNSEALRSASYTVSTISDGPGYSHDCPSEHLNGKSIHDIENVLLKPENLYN
T1 sequence (O60894 27-148): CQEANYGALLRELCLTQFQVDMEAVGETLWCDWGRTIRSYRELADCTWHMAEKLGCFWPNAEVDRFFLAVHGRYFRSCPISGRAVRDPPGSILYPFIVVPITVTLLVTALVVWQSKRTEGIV

Q: With `CC(=O)N[C@@H](Cc1c[nH]c2ccccc12)C(=O)N[C@H](C(=O)N[C@H]1CCC(=O)NCCCC[C@@H](C(=O)NCC(=O)N[C@@H](CC(C)C)C(=O)N[C@@H](CC(C)C)C(=O)N[C@@H](CO)C(=O)N[C@@H](CCCNC(N)=O)C(=O)N[C@@H](CO)C(=O)NCC(=O)NCC(=O)N[C@H](C(=O)N[C@H](C(=O)N[C@@H](CCCNC(=N)N)C(=O)N[C@@H](CCCCN)C(=O)N[C@@H](CC(N)=O)C(=O)N[C@@H](Cc2ccccc2)C(=O)N[C@H](C(=O)N2CCC[C@H]2C(=O)N[C@H](C(=O)N[C@@H](CC(=O)O)C(=O)N[C@H](C(=O)NCC(=O)N2CCC[C@H]2C(=O)N[C@@H](Cc2ccccc2)C(=O)N[C@@H](C)C(=O)N[C@@H](Cc2ccccc2)C(N)=O)C(C)C)[C@@H](C)O)C(C)C)C(C)C)C(C)C)NC(=O)[C@H](CC(C)C)NC(=O)[C@H](CCCNC(=N)N)NC(=O)[C@H](Cc2c[nH]cn2)NC1=O)C(C)C` [compound 893] (Ac-WVEHRLKGLLS[Cit]SGGVVRKNFVPTDVGPFAF-NH2; lactam 3-7) as the compound, how does the pIC50 (Peptide IC50, Table 2C, unconjugated peptide) read?
A: 8.79

Q: With `CC(=O)N[C@@H](Cc1c[nH]c2ccccc12)C(=O)N[C@H](C(=O)N[C@H]1CCC(=O)NCCCC[C@@H](C(=O)NCC(=O)N[C@H]2CCC(=O)NCCCC[C@@H](C(=O)NCC(=O)NCC(=O)N[C@H](C(=O)N[C@H](C(=O)N[C@@H](CCCCNC(=N)N)C(=O)N[C@@H](CCCCN)C(=O)N[C@@H](CC(N)=O)C(=O)N[C@@H](Cc3ccccc3)C(=O)N[C@H](C(=O)N3CCC[C@H]3C(=O)N[C@H](C(=O)N[C@@H](CC(=O)O)C(=O)N[C@H](C(=O)NCC(=O)N3CCC[C@H]3C(=O)N[C@@H](Cc3ccccc3)C(=O)N[C@@H](C)C(=O)N[C@@H](Cc3ccccc3)C(N)=O)C(C)C)[C@@H](C)O)C(C)C)C(C)C)C(C)C)NC(=O)[C@H](CCCNC(N)=O)NC(=O)[C@H](CO)NC(=O)[C@H](CC(C)C)NC2=O)NC(=O)[C@H](CC(C)C)NC(=O)[C@H](CCCNC(=N)N)NC(=O)[C@H](Cc2c[nH]cn2)NC1=O)C(C)C` [compound 902] as the compound, how does the pIC50 [1] read?
A: 9.31

Q: With “H-CGGGGGGGVTHRLAGLLSRSGGVVKNNFVPTDVGPFAF-NH2 [compound 3]” as the compound, how does the pIC50 (Table 3, unconjugated CGRP peptide analogs, n = 2-4, read-out: IC50) read?
A: 9.14

Q: With “Ac-WVTHRLAGLLSRSGGVVRKNFVPTDVGSKAF-NH2 [compound 915]” as the compound, how does the pIC50 [1] read?
A: 8.94

Q: With `CC(=O)N[C@@H](Cc1c[nH]c2ccccc12)C(=O)N[C@H](C(=O)N[C@H](C(=O)N[C@@H](Cc1cnc[nH]1)C(=O)N[C@@H](CCCCNC(=N)N)C(=O)N[C@@H](CC(C)C)C(=O)N[C@@H](C)C(=O)NCC(=O)N[C@@H](CC(C)C)C(=O)N[C@@H](CC(C)C)C(=O)N[C@@H](CO)C(=O)N[C@@H](CCCCNC(=N)N)C(=O)N[C@@H](CO)C(=O)NCC(=O)NCC(=O)N[C@H](C(=O)N[C@H](C(=O)N[C@@H](CCCNC(=N)N)C(=O)N[C@@H](CCCCN)C(=O)N[C@@H](CC(N)=O)C(=O)N[C@@H](Cc1ccccc1)C(=O)N[C@H](C(=O)N1CCC[C@H]1C(=O)N[C@H](C(=O)N[C@@H](CC(=O)O)C(=O)N[C@H](C(=O)NCC(=O)N1CCC[C@H]1C(=O)N[C@@H](Cc1ccccc1)C(=O)N[C@@H](C)C(=O)N[C@@H](Cc1ccccc1)C(N)=O)C(C)C)[C@@H](C)O)C(C)C)C(C)C)C(C)C)[C@@H](C)O)C(C)C` [compound 784] as the compound, how does the pIC50 (Table 2D, read-out: IC50) read?
A: 8.68

Q: How did the pIC50 (Table 2D, read-out: IC50) turn out when “Ac-WVTHRLAGLLSRPGGVVRKNFVPTDVGPFAF-NH2 [compound 854]” was run?
A: 8.90

Q: With `CC(=O)N[C@@H](Cc1c[nH]c2ccccc12)C(=O)N[C@H](C(=O)N[C@H](C(=O)N[C@@H](Cc1c[nH]cn1)C(=O)N[C@@H](CCCNC(N)=O)C(=O)N[C@@H](CC(C)C)C(=O)N[C@@H](C)C(=O)NCC(=O)N[C@@H](CC(C)C)C(=O)N[C@@H](CC(C)C)C(=O)N[C@@H](CO)C(=O)N[C@@H](CCCNC(=N)N)C(=O)N1CCC[C@H]1C(=O)NCC(=O)NCC(=O)N[C@H](C(=O)N[C@H](C(=O)N[C@@H](CCCNC(=N)N)C(=O)N[C@@H](CCCCN)C(=O)N[C@@H](CC(N)=O)C(=O)N[C@@H](Cc1ccccc1)C(=O)N[C@H](C(=O)N1CCC[C@H]1C(=O)N[C@H](C(=O)N[C@@H](CC(=O)O)C(=O)N[C@H](C(=O)NCC(=O)N1CCC[C@H]1C(=O)N[C@@H](Cc1ccccc1)C(=O)N[C@@H](C)C(=O)N[C@@H](Cc1ccccc1)C(N)=O)C(C)C)[C@@H](C)O)C(C)C)C(C)C)C(C)C)[C@@H](C)O)C(C)C` [compound 868] (Ac-WVTH[Cit]LAGLLSRPGGVVRKNFVPTDVGPFAF-NH2) as the compound, how does the pIC50 [1] read?
A: 8.52

Q: “SEQ ID NO:40 (Ac-WVTHQLAGLLSQSGGVVRK(PEG)NFVPTDVGPFAF-NH2; reading uncertain)” was tested. Which “antagonist activity in cAMP assay, in words” value (shortened to “antagonist activity”) did it give?
A: reasonably good in vitro potency

Q: How did the “antagonist activity” value turn out when “SEQ ID NO:8 (Ac-WVTHRLAGLLSRSGGVVRCNFVPTDVGPFAF-NH2)” was run?
A: somewhat less active

Q: What about the “improvement in potency compared to SEQ ID NO:9” value (unPEGylated peptides) of the same compound?
A: more than 4 fold

Q: With `CC(=O)N[C@@H](Cc1c[nH]c2ccccc12)C(=O)N[C@H](C(=O)N[C@H](C(=O)N[C@@H](Cc1c[nH]cn1)C(=O)N[C@@H](CCCNC(=N)N)C(=O)N[C@@H](CC(C)C)C(=O)N[C@@H](C)C(=O)NCC(=O)N[C@@H](CC(C)C)C(=O)N[C@@H](C)C(=O)N[C@@H](CO)C(=O)N[C@@H](CCCNC(N)=O)C(=O)N[C@@H](CO)C(=O)NCC(=O)NCC(=O)N[C@H](C(=O)N[C@H](C(=O)N[C@@H](CCCNC(=N)N)C(=O)N[C@@H](CCCCN)C(=O)N[C@@H](CC(N)=O)C(=O)N[C@@H](Cc1ccccc1)C(=O)N[C@H](C(=O)N1CCC[C@H]1C(=O)N[C@H](C(=O)N[C@@H](CC(=O)O)C(=O)N[C@H](C(=O)NCC(=O)N1CCC[C@H]1C(=O)N[C@@H](Cc1ccccc1)C(=O)N[C@@H](C)C(=O)N[C@@H](Cc1ccccc1)C(N)=O)C(C)C)[C@@H](C)O)C(C)C)C(C)C)C(C)C)[C@@H](C)O)C(C)C` [compound 850] (Ac-WVTHRLAGLAS[Cit]SGGVVRKNFVPTDVGPFAF-NH2) as the compound, how does the pIC50 (Table 2D, read-out: IC50) read?
A: 8.73

Q: How did the pIC50 [1] turn out when `CC(=O)N[C@@H](Cc1c[nH]c2ccccc12)C(=O)N[C@H](C(=O)N[C@H](C(=O)N[C@@H](Cc1c[nH]cn1)C(=O)N[C@@H](CCCNC(=N)N)C(=O)N[C@@H](CC(C)C)C(=O)N[C@@H](C)C(=O)NCC(=O)N[C@@H](CC(C)C)C(=O)N[C@@H](CC(C)C)C(=O)N[C@@H](CO)C(=O)N[C@@H](CCCNC(=N)N)C(=O)N[C@@H](CO)C(=O)NCC(=O)NCC(=O)N[C@H](C(=O)N[C@H](C(=O)N[C@@H](CCCNC(=N)N)C(=O)N[C@@H](CCCCN)C(=O)N[C@@H](CC(N)=O)C(=O)N[C@@H](Cc1ccc2ccccc2c1)C(=O)N[C@H](C(=O)N1CCC[C@H]1C(=O)N[C@H](C(=O)N[C@@H](CC(=O)O)C(=O)N[C@H](C(=O)NCC(=O)N1CCC[C@H]1C(=O)N[C@@H](Cc1ccccc1)C(=O)N[C@@H](C)C(=O)N[C@@H](Cc1ccccc1)C(N)=O)C(C)C)[C@@H](C)O)C(C)C)C(C)C)C(C)C)[C@@H](C)O)C(C)C` [compound 912] (Ac-WVTHRLAGLLSRSGGVVRKN[2Nal]VPTDVGPFAF-NH2) was run?
A: 8.94

Q: For “SEQ ID NO:23 (WVTHRLAGLLSXSGGVVRKNFVPTDVGPFAF; CGRP peptide; MOD_RES (1)..(1): …ON; MISC_FEATURE (12)..(12): xaa=homoarginine; MOD_RES (31)..(31): AMIDATION)”, which “antagonist activity” value is on record?
A: well tolerated

Q: How did the pIC50 [1] turn out when `CC[C@H](C)[C@H](NC(=O)[C@H](CCCNC(N)=O)NC(=O)[C@H](Cc1c[nH]cn1)NC(=O)[C@@H](NC(=O)[C@@H](NC(=O)[C@H](Cc1c[nH]c2ccccc12)NC(C)=O)C(C)C)[C@@H](C)O)C(=O)N[C@@H](CC(C)C)C(=O)N[C@@H](C)C(=O)NCC(=O)N[C@@H](CC(C)C)C(=O)N[C@@H](CC(C)C)C(=O)N1CCC[C@H]1C(=O)N[C@@H](CCCNC(=N)N)C(=O)N[C@@H](CO)C(=O)NCC(=O)NCC(=O)N[C@H](C(=O)N[C@H](C(=O)N[C@@H](CCCNC(=N)N)C(=O)N[C@@H](CCCCN)C(=O)N[C@@H](CC(N)=O)C(=O)N[C@@H](Cc1ccccc1)C(=O)N[C@H](C(=O)N1CCC[C@H]1C(=O)N[C@H](C(=O)N[C@@H](CC(=O)O)C(=O)N[C@H](C(=O)NCC(=O)N1CCC[C@H]1C(=O)N[C@@H](Cc1ccccc1)C(=O)N[C@@H](C)C(=O)N[C@@H](Cc1ccccc1)C(N)=O)C(C)C)[C@@H](C)O)C(C)C)C(C)C)C(C)C` [compound 867] (Ac-WVTH[Cit]ILAGLLPRSGGVVRKNFVPTDVGPFAF-NH2) was run?
A: 8.64

Q: With `CC(=O)N[C@@H](Cc1c[nH]c2ccccc12)C(=O)N[C@H](C(=O)N[C@H](C(=O)N[C@@H](Cc1c[nH]cn1)C(=O)N[C@@H](CCCNC(N)=O)C(=O)N[C@@H](CC(C)C)C(=O)N[C@@H](C)C(=O)NCC(=O)N[C@@H](CC(C)C)C(=O)N[C@@H](CC(C)C)C(=O)N[C@@H](CO)C(=O)N[C@@H](CCCNC(N)=O)C(=O)N[C@@H](CO)C(=O)NCC(=O)NCC(=O)N[C@H](C(=O)N[C@H](C(=O)N[C@@H](CCCCNC(=N)N)C(=O)N[C@@H](CCCCN)C(=O)N[C@@H](CC(N)=O)C(=O)N[C@@H](Cc1ccccc1)C(=O)N[C@H](C(=O)N1CCC[C@H]1C(=O)N[C@H](C(=O)N[C@@H](CC(=O)O)C(=O)N[C@H](C(=O)NCC(=O)N1CCC[C@H]1C(=O)N[C@@H](Cc1cccc2ccccc12)C(=O)N[C@@H](C)C(=O)N[C@@H](Cc1ccccc1)C(N)=O)C(C)C)[C@@H](C)O)C(C)C)C(C)C)C(C)C)[C@@H](C)O)C(C)C` [compound 144] (Ac-WVTH[Cit]LAGLLS[Cit]SGGVV[hArg]KNFVPTDVGP[1Nal]AF-NH2) as the compound, how does the pIC50 (Table 2A, read-out: IC50) read?
A: 8.65

Q: Which “antagonist activity” value does the source give for “SEQ ID NO:9 (Ac-WVTHRLAGLLSRSGGVVCNNFVPTDVGPFAF-NH2)” here?
A: somewhat less active

Q: With “Ac-WVTHRLAGLLSQSGGVVRCNFVPTDVGPFAF-NH2 [compound 35]” as the compound, how does the pIC50 (Table 7, R11 and/or R18 stability analogs, with or without 20 kDa PEG, read-out: IC50) read?
A: 9.43
